For experiment [1], the system named is differentiated L6-myotubes. Briefly: Glucose uptake screen (Biological example 1 of WO 2019/053427). In kind it is cell-based. The settings on record: compound at 10 μM, activity relative to isoproterenol at 10 μM, read-out: Biological example 1 of WO 2019/053427 (GU). In short, it runs like this: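 Uptake was read out as ^3H-2-deoxyglucose (50 nM, 10 min) radioactivity in NaOH lysates. Beforehand, overnight-starved, differentiated L6 myotubes received compound at 1×10^−5 M with ICI-118551 present for 1 h 40 min, followed by fresh agonist for a further 20 min in glucose-free medium.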

Experiment [2] deals with differentiated L6-myotubes. Briefly: cAMP production relative to isoprenaline (Biological example 2 of WO 2019/053427). Format: cell-based. To be noted: 0.25 h, compound at 10 μM, activity relative to isoproterenol at 10 μM. In outline: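 Values are cAMP levels relative to isoprenaline at equal concentration (final 1×10^−5 M for both). Stimulation lasted 15 min in differentiated L6 myotubes, using HBSS buffer (pH 7.4) containing 1 mM IBMX, 5 mM HEPES and 1% BSA.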

Here are results for 20 molecules from patent publication US20260256751A1, “COMBINATION OF BETA-2-ADRENERGIC RECEPTOR AGONISTS AND GLP-1 RECEPTOR AGONISTS FOR USE IN TREATING HYPERGLYCAEMIA” (ATROGI AB, priority 2023, published 2026).

Some results are limits rather than exact numbers.

Take `CS(=O)(=O)N(Cc1ccccc1)[C@H]1CC[C@@H](C[C@@H]2CC[C@H]([C@H](O)c3cccc(F)c3)N2)CC1` [Compound 508, (R)-[(2R,5S)-5-({(1s,4R)-4-[(benzyl)-N-mesylamino]cyclohexyl}methyl)-2-pyrrolidinyl](m-fluorophenyl)methanol]: the Emax at 10 µM in experiment [1] and in experiment [2] was below 25% in each case.
For the molecule `CS(=O)(=O)N(Cc1ccccc1)[C@H]1CC[C@@H](C[C@@H]2CC[C@H]([C@@H](O)c3cccc(F)c3)N2)CC1` [Compound 509, (S)-[(2R,5S)-5-({(1s,4R)-4-[(benzyl)-N-mesylamino]cyclohexyl}methyl)-2-pyrrolidinyl](m-fluorophenyl)methanol], the Emax at 10 µM in experiment [1] and in experiment [2] was below 25% in each case.
With `CS(=O)(=O)N[C@H]1CC[C@@H](C[C@@H]2CC[C@H]([C@H](O)c3cccc(F)c3)N2)CC1` [Compound 510, (R)-[(2R,5S)-5-{[(1s,4R)-4-(mesylamino)cyclohexyl]methyl}-2-pyrrolidinyl](m-fluorophenyl)methanol], the Emax at 10 µM was above 75% in experiment [1] and below 25% in experiment [2].
For `CS(=O)(=O)N[C@H]1CC[C@@H](C[C@@H]2CC[C@H]([C@@H](O)c3cccc(F)c3)N2)CC1` [Compound 511, (S)-[(2R,5S)-5-{[(1s,4R)-4-(mesylamino)cyclohexyl]methyl}-2-pyrrolidinyl](m-fluorophenyl)methanol], in that order: 25 to 50% and below 25%.
For `CS(=O)(=O)N(Cc1ccccc1)c1cccc(CC23CCC([C@@H](O)c4cccc(F)c4)(CC2)N3)c1` [Compound 512, (S)-[4-({m-[(benzyl)-N-mesylamino]phenyl}methyl)-7-azabicyclo[2.2.1]hept-1-yl](m-fluorophenyl)methanol], in that order: below 25% and below 25%.
`CS(=O)(=O)N(Cc1ccccc1)c1cccc(CC23CCC([C@H](O)c4cccc(F)c4)(CC2)N3)c1` [Compound 513, (R)-[4-({m-[(benzyl)-N-mesylamino]phenyl}methyl)-7-azabicyclo[2.2.1]hept-1-yl](m-fluorophenyl)methanol]: the Emax at 10 µM in experiment [1] was 25 to 50%; in experiment [2] it was below 25%.
On to `CS(=O)(=O)Nc1cccc(CC23CCC([C@@H](O)c4cccc(F)c4)(CC2)N3)c1` [Compound 514, (S)-(m-fluorophenyl)(4-{[m-(mesylamino)phenyl]methyl}-7-azabicyclo[2.2.1]hept-1-yl)methanol], for which the figures for the Emax at 10 µM in experiment [1] and in experiment [2] were 50 to 75% and below 25%, respectively.
As to `CS(=O)(=O)Nc1cccc(CC23CCC([C@H](O)c4cccc(F)c4)(CC2)N3)c1` [Compound 515, (R)-(m-fluorophenyl)(4-{[m-(mesylamino)phenyl]methyl}-7-azabicyclo[2.2.1]hept-1-yl)methanol], the Emax at 10 µM in experiment [1] is 50 to 75%; in experiment [2], 25 to 50%.
In the case of `CC(C)(C[C@H]1CC[C@H](S(N)(=O)=O)CC1)NC[C@H](O)c1cccc(F)c1` [Compound 516, (1R,4r)-4-{2-[(R)-2-(m-fluorophenyl)-2-hydroxyethylamino]-2-methylpropyl}cyclohexanesulfonamide], the Emax at 10 µM was above 75% in experiment [1] and below 25% in experiment [2].
Take `CC(C)(C[C@H]1CC[C@@H](S(N)(=O)=O)CC1)NC[C@H](O)c1cccc(F)c1` [Compound 517, (1S,4s)-4-{2-[(R)-2-(m-fluorophenyl)-2-hydroxyethylamino]-2-methylpropyl}cyclohexanesulfonamide]: the values for the Emax at 10 µM in experiment [1] and in experiment [2] were 25 to 50% and below 25%, respectively.
Turning to `CC(C)(C[C@H]1CC[C@H](S(N)(=O)=O)CC1)NC[C@H](O)c1cncc(F)c1` [Compound 518, (1R,4r)-4-{2-[(R)-2-(5-fluoro-3-pyridyl)-2-hydroxyethylamino]-2-methylpropyl}cyclohexanesulfonamide], the Emax at 10 µM in experiment [1] was 50 to 75%; in experiment [2], below 25%.
For the molecule `CC(C)(C[C@H]1CC[C@@H](S(N)(=O)=O)CC1)NC[C@H](O)c1cncc(F)c1` [Compound 519, (1S,4s)-4-{2-[(R)-2-(5-fluoro-3-pyridyl)-2-hydroxyethylamino]-2-methylpropyl}cyclohexanesulfonamide], the Emax at 10 µM in experiment [1] is above 75%; in experiment [2], below 25%.
In the same order, the values of `CN([C@H]1CC[C@@H](CC(C)(C)NC[C@H](O)c2cncc(F)c2)CC1)S(C)(=O)=O` [Compound 520, (R)-2-{1,1-dimethyl-2-[(1s,4S)-4-(N-mesyl-N-methylamino)cyclohexyl]ethylamino}-1-(5-fluoro-3-pyridyl)-1-ethanol] are 50 to 75% and below 25%.
For `CN([C@H]1CC[C@H](CC(C)(C)NC[C@H](O)c2cncc(F)c2)CC1)S(C)(=O)=O` [Compound 521, (R)-2-{1,1-dimethyl-2-[(1r,4R)-4-(N-mesyl-N-methylamino)cyclohexyl]ethylamino}-1-(5-fluoro-3-pyridyl)-1-ethanol], in that order: 50 to 75% and below 25%.
With `CC(C)(C[C@H]1CC[C@@H](NS(=O)(=O)C(F)(F)F)CC1)NC[C@H](O)c1cncc(F)c1` [Compound 522, (R)-2-{1,1-dimethyl-2-[(1s,4S)-4-(trifluoromesylamino)cychloehxyl]ethylamino}-1-(5-fluoro-3-pyridyl)-1-ethanol], the Emax at 10 µM in experiment [1] is above 75%; in experiment [2] it was below 25%.
As to `CCCS(=O)(=O)N[C@H]1CC[C@@H](CC(C)(C)NC[C@H](O)c2cncc(F)c2)CC1` [Compound 523, (R)-2-{1,1-dimethyl-2-[(1s,4S)-4-(propylsulfonylamin)cyclohexyl]ethylamino}-1-(5-fluoro-3-pyridyl)-1-ethanol], the Emax at 10 µM was 50 to 75% in experiment [1] and below 25% in experiment [2].
`CCS(=O)(=O)N[C@H]1CC[C@@H](CC(C)(C)NC[C@H](O)c2cccc(F)c2)CC1` [Compound 524, (R)-2-{1,1-dimethyl-2-[(1s,4S)-4-(ethylsulfonylamino)cyclohexyl]ethylamino}-1-(m-fluorophenyl)-1-ethanol]: the Emax at 10 µM was 50 to 75% in experiment [1] and below 25% in experiment [2].
For `CCS(=O)(=O)N[C@H]1CC[C@H](CC(C)(C)NC[C@H](O)c2cncc(F)c2)CC1` [Compound 525, (R)-2-{1,1-dimethyl-2-[(1r,4R)-4-(ethylsulfonylamino)cyclohexyl]ethylamino}-1-(5-fluoro-3-pyridyl)-1-ethanol], in that order: 50 to 75% and below 25%.
For the molecule `CC(C)CS(=O)(=O)N[C@H]1CC[C@H](CC(C)(C)NC[C@H](O)c2cncc(F)c2)CC1` [Compound 526, (R)-2-{1,1-dimethyl-2-[(1r,4R)-4-(isobutylsulfonylamino)cyclohexyl]ethylamino}-1-(5-fluoro-3-pyridyl)-1-ethanol], the Emax at 10 µM is 50 to 75% in experiment [1] and below 25% in experiment [2].
As for `O[C@@H](c1cccc(F)c1)C12CCC(CCc3ccc(Cl)cc3)(CC1)N2` [Compound 527, (S)-{4-[2-(p-chlorophenyl)ethyl]-7-azabicyclo[2.2.1]hept-1-yl}(m-fluorophenyl)methanol], the Emax at 10 µM in experiment [1] and in experiment [2] was below 25% throughout.
